# Laboratory results reported in patent US20250171459A1, “2-METHYL-4',5'-DIHYDROSPIRO[PIPERIDINE-4,7'-THIENO[2,3-C]PYRAN] DERIVATIVES AS INHIBITORS OF APOL1 AND METHODS OF USING SAME” (Vertex Pharmaceuticals Incorporated, priority 2022, published 2025).
# Target: T1, APOL1 (Homo sapiens, UniProt O14791)
# T1 sequence (O14791 1-398 S342G/I384M): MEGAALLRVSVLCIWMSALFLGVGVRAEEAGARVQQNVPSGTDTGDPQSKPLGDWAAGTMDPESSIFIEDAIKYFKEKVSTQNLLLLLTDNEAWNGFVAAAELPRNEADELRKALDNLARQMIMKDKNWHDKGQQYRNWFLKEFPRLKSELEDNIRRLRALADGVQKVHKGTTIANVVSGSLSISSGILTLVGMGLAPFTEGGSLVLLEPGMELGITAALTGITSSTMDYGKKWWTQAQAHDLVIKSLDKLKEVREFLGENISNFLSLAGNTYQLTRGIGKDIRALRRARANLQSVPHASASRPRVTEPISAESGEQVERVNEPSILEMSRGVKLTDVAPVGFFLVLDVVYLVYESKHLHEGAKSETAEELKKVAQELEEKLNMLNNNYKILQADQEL
# Assay: MultiTox-Fluor Multiplex Cytotoxicity Assay in tet-inducible APOL1 T-REx-HEK293 cells (cell rescue, ratio of dead to live cells)
# Type: cell-based
# Settings: tet-inducible transgenic APOL1 T-REx-HEK293 cell lines, 50 ng/mL tet, 24 hours; read-out: IP50 (i.e., IC50 for cell proliferation)
# Outline: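 T-REx-HEK293 cells with tet-inducible APOL1 were treated with compound (10 μM top, 10-point 3-fold dilution, duplicate) plus 50 ng/mL tetracycline for 24 h at 37° C, in DMEM with 2% tet-free FBS. MultiTox-Fluor protease signals gave a dead/live ratio, normalized to no tet (100% viability) and tet alone (0%).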
row,SMILES,IC50 [nM]
1,C[C@H]1C[C@@]2(CCN1Cc1cnn(CC(O)CC3(O)COC3)c1)OCCc1c2sc(C(F)(F)F)c1CO (some centres unmarked) [Compound 945],< 100
2,CCc1cc2c(s1)CCOC21CCN(CC2CC2)CC1 [Compound 1155],500 to 1000
3,CCc1cc2c(s1)CCO[C@@]21CCN(Cc2cn(C[C@@H](C)O)nn2)[C@@H](C)C1 [Compound 140],< 100
4,CCc1cc2c(s1)CCO[C@@]21CCN(Cc2cn(Cc3cocn3)nn2)[C@@H](C)C1 [Compound 35],100 to 500
5,CCc1cc2c(s1)CCO[C@@]21CCN(Cc2cn(CCN3C(=O)CCC3=O)nn2)[C@@H](C)C1 [Compound 173],100 to 500
6,CC(O)c1c(C(F)(F)F)sc2c1CCO[C@@]21CCN(Cc2cnn(CCS(C)(=O)=O)c2)[C@@H](C)C1 (some centres unmarked) [Compound 879],< 100
7,C[C@H]1C[C@@]2(CCN1Cc1cn(C3CCOCC3)nn1)OC[C@](O)(C(F)F)c1cc(Cl)sc12 [Compound 841],< 100
8,CCc1cc2c(s1)CCO[C@@]21CCN(Cc2cn(CC(C)(O)c3ccccc3)nn2)[C@@H](C)C1 (some centres unmarked) [Compound 93],500 to 1000
9,C[C@H]1C[C@@]2(CCN1Cc1cccnc1)OCCc1cc(Cl)sc12 [Compound 639],< 100
10,"C[C@H]1C[C@@]2(CCN1Cc1cn(C(C)(C)CO)nn1)OCCc1c2sc(C(F)(F)F)c1CO [Compound 1000, 2-[4-[[(2′S, 7R)-3-(hydroxymethyl)-2′-methyl-2-(trifluoromethyl)spiro[4,5-dihydrothieno[2,3-c]pyran-7,4′-piperidine]-1′-yl]methyl]triazol-1-yl]-2-methyl-propan-1-ol]",500 to 1000
11,C[C@H]1C[C@@]2(CCN1Cc1cnn(CC(=O)NC3CC3)c1)OCCc1c2sc(C(F)(F)F)c1CO [Compound 903],< 100
12,CCc1cc2c(s1)CCO[C@@]21CCN(CC2CN(C(=O)C3COCCO3)C2)[C@@H](C)C1 (some centres unmarked) [Compound 440],< 100
13,C[C@H]1C[C@@]2(CCN1Cc1cn3c(n1)CCC3)OCCc1cc(Cl)sc12 [Compound 679],500 to 1000
14,CCc1cc2c(s1)CCOC21CCN(Cc2ccc(C(=O)N[C@H](CC)CO)nc2)CC1 [Compound 1053],< 100
15,CCc1cc2c(s1)CCO[C@@]21CCN(Cc2cn(CC(=O)N3CCOCC3)nn2)[C@@H](C)C1 [Compound 90],100 to 500
16,CCc1cc2c(s1)CCOC21CCN(Cc2cncs2)CC1 [Compound 1142],500 to 1000
17,Cc1sc2c(c1C)[C@]1(CCN(Cc3cn(CCS(C)(=O)=O)nn3)[C@@H](C)C1)OCC2 [Compound 512],100 to 500
18,CCc1cc2c(s1)CCO[C@@]21CCN(Cc2cn(CC3COCCN3)nn2)[C@@H](C)C1 (some centres unmarked) [Compound 95],< 100
19,Cc1ncc(CN2CC[C@]3(C[C@@H]2C)OCCc2c3sc(Cl)c2CO)cn1 [Compound 738],100 to 500
20,CCc1cc2c(s1)CCO[C@@]21CCN(C[C@H]2C[C@@H](NC(=O)CC3CS(=O)(=O)C3)C2)[C@@H](C)C1 [Compound 352],< 100
21,"C[C@H]1C[C@@]2(CCN1Cc1cnn(C[C@@H](O)C(=O)N(C)C)c1)OCCc1c2sc(C(F)(F)F)c1CO [Compound 987, (2R)-2-hydroxy-3-[4-[[(2′S, 7R)-3-(hydroxymethyl)-2′-methyl-2-(trifluoromethyl)spiro[4,5-dihydrothieno[2,3-c]pyran-7,4′-piperidine]-1′-yl]methyl]pyrazol-1-yl]-N,N-dimethyl-propanamide]",< 100
22,"CCc1cc2c(s1)CCO[C@@]21CCN(CC2CN(C(=O)OC)C2)[C@@H](C)C1 [Compound 424, methyl 3-[[(2′S,4R)-2-ethyl-2′-methyl-spiro[6,7-dihydrothieno[3,2-c]pyran-4,4′-piperidine]-1′-yl]methyl]azetidine-1-carboxylate]",500 to 1000
23,"C[C@H]1C[C@@]2(CCN1Cc1cnn(C[C@@H](O)C(C)(C)O)c1)OC[C@@H](O)c1cc(C(F)(F)F)sc12 [Compound 890, (2R)-1-[4-[[(2′S,4S,7R)-4-hydroxy-2′-methyl-2-(trifluoromethyl)spiro[4,5-dihydrothieno[2,3-c]pyran-7,4′-piperidine]-1′-yl]methyl]pyrazol-1-yl]-3-methyl-butane-2,3-diol]",< 100
24,Cc1cc2c(s1)CCO[C@@]21CCN(C2CCCC2O)[C@@H](C)C1 (some centres unmarked) [Compound 504],100 to 500
25,Cc1cccc(CN2CC[C@]3(C[C@@H]2C)OCCc2c3sc(Cl)c2CO)n1 [Compound 739],500 to 1000
26,CCc1cc2c(s1)CCO[C@@]21CCN(Cc2cn(C3(CO)COC3)nn2)[C@@H](C)C1 [Compound 147],500 to 1000
27,"C[C@H]1C[C@@]2(CCN1C[C@H](O)C(N)=O)OCCc1sc(Cl)cc12 [Compound 508, (2S)-3-[(2′S,4R)-2-chloro-2′-methyl-spiro[6,7-dihydrothieno[3,2-c]pyran-4,4′-piperidine]-1′-yl]-2-hydroxy-propanamide]",100 to 500

row,SMILES,IC50 [nM]
1,CCc1cc2c(s1)CCO[C@@]21CCN(Cc2cn(CC3CCCN(S(C)(=O)=O)C3)nn2)[C@@H](C)C1 (some centres unmarked) [Compound 187],100 to 500
2,CCc1cc2c(s1)CCO[C@@]21CCN(Cc2cn(C3CN(S(=O)(=O)c4nccn4C)C3)nn2)[C@@H](C)C1 [Compound 3],< 100
3,"CCc1cc2c(s1)CCO[C@@]21CCN(C[C@H]2C[C@@H](NC(=O)OCCOCCOCCOC(=O)NCCOCCOCCCCCCCl)C2)[C@@H](C)C1 [Compound 386, 2-[2-[2-[[3-[[(2′S,4R)-2-ethyl-2′-methyl-spiro[6,7-dihydrothieno[3,2-c]pyran-4,4′-piperidine]-1′-yl]methyl]cyclobutyl]carbamoyloxy]ethoxy]ethoxy]ethyl N-[2-[2-(6-chlorohexoxy)ethoxy]ethyl]carbamate]",< 100
4,C[C@H]1C[C@@]2(CCN1CCN1CCCC1=O)OCCc1cc(CC(F)F)sc12 [Compound 623],500 to 1000
5,CCc1cc2c(s1)CCO[C@@]21CCN(C[C@H]2C[C@@H](NC(=O)CC3CC(F)(F)C3)C2)[C@@H](C)C1 [Compound 338],< 100
6,"C[C@H]1CC2(CCN1Cc1cnn(CCS(C)(=O)=O)c1)OCC1(CC1)c1cc(Cl)sc12 (some centres unmarked) [Compound 1022, (2″S)-2′-chloro-2″-methyl-1″-((1-(2-(methylsulfonyl)ethyl)-1H-pyrazol-4-yl)methyl)-5′H-dispiro[cyclopropane-1,4′-thieno[2,3-c]pyran-7′,4″-piperidine]]",< 100
7,C[C@H]1C[C@@]2(CCN1Cc1cn(-c3ncccn3)cn1)OC[C@H](O)c1cc(Cl)sc12 [Compound 790],100 to 500
8,CCc1cc2c(s1)CCOC21CCN(Cc2cn(CCC(=O)NCCC(F)(F)F)nn2)CC1 [Compound 1100],500 to 1000
9,C[C@H]1C[C@@]2(CCN1Cc1cnn(CC3CCOCC3)c1)OCCc1cc(Cl)sc12 [Compound 706],< 100
10,CCc1cc2c(s1)CCO[C@@]21CCN(CC(O)C(N)=O)[C@@H](C)C1 (some centres unmarked) [Compound 240],100 to 500
11,C[C@H]1C[C@@]2(CCN1Cc1ncn3ccccc13)OCCc1c2sc(Cl)c1CO [Compound 740],500 to 1000
12,CCc1cc2c(s1)CCO[C@@]21CCN(C[C@H]2C[C@@H](NC(=O)CS(=O)(=O)NC)C2)[C@@H](C)C1 [Compound 342],< 100
13,CCc1cc2c(s1)CCO[C@@]21CCN(C[C@H]2C[C@@H](NC(=O)C3(O)CC3)C2)[C@@H](C)C1 [Compound 335],< 100
14,C[C@H]1C[C@@]2(CCN1Cc1cnn(CC(C)(O)CO)c1)OC[C@@H](O)c1cc(C(F)(F)F)sc12 (some centres unmarked) [Compound 972],< 100
15,COc1ncc(CN2CC[C@]3(C[C@@H]2C)OC[C@H](O)c2cc(Cl)sc23)cn1 [Compound 807],100 to 500
16,"CCc1cc2c(s1)C(C)COC21CCN(Cc2cnn(C)c2)CC1 (single isomer, unassigned) [Compound 1171, 2-ethyl-7-methyl-1′-[(1-methylpyrazol-4-yl)methyl]spiro[6,7-dihydrothieno[3,2-c]pyran-4,4′-piperidine]]",500 to 1000
17,CCc1cc2c(s1)CCO[C@@]21CCN(Cc2cn(CC(O)Cc3ccc(F)cc3)nn2)[C@@H](C)C1 (some centres unmarked) [Compound 112],< 100
18,CCc1cc2c(s1)CCO[C@@]21CCN(Cc2cnc(NCCN(CCO)CCO)nc2)[C@@H](C)C1 [Compound 230],< 100
19,CCc1cc2c(s1)CCO[C@@]21CCN(Cc2cn(C3CC(CO)N3)nn2)[C@@H](C)C1 (some centres unmarked) [Compound 128],100 to 500
20,CCc1cc2c(s1)CCO[C@@]21CCN(CC(C)(C)O)[C@@H](C)C1 [Compound 236],100 to 500
21,"CCc1cc2c(s1)CCO[C@@]21CCN(C[C@H]2C[C@@H](N)C2)[C@@H](C)C1 [Compound 299, 3-[[(2′S,4R)-2-ethyl-2′-methyl-spiro[6,7-dihydrothieno[3,2-c]pyran-4,4′-piperidine]-1′-yl]methyl]cyclobutanamine]",100 to 500
22,CCc1cc2c(s1)CCO[C@@]21CCN(CC2CN(C(=O)C(C)S(C)(=O)=O)C2)[C@@H](C)C1 (some centres unmarked) [Compound 432],< 100
23,C[C@H]1C[C@@]2(CCN1Cc1cnn(CC3(O)CCCOC3)c1)OCCc1c2sc(C(F)(F)F)c1CO (some centres unmarked) [Compound 952],< 100
24,CCc1cc2c(s1)CCO[C@@]21CCN(Cc2cn(C(C)COC)nn2)[C@@H](C)C1 (some centres unmarked) [Compound 130],100 to 500
25,CCc1cc2c(s1)CCO[C@@]21CCN(Cc2cn(-c3cncnc3)nn2)[C@@H](C)C1 [Compound 72],< 100
26,CCc1cc2c(s1)CCO[C@@]21CCN(C2CCCC2O)[C@@H](C)C1 (some centres unmarked) [Compound 234],< 100
